In US20240376378A1, “COLORANT FOR FLUORESCENT LABELING AND FLUORESCENT LABELING AGENT” (artience Co., Ltd., priority 2021, published 2024):

How the values were obtained:
[1] = Measurement of average particle size (Z average, dynamic light scattering) of colorant dispersed component in PBS dispersion; type: physicochemical; conditions: 20 μM DMSO colorant solution diluted 10-fold with PBS to 2 μM, measured within 5 minutes
Method: The average particle size of the colorant dispersed component contained in the colorant dispersion I can be measured as follows.
A colorant solution is obtained by dissolving a colorant for fluorescent labeling in an organic solvent that can dissolve the colorant for fluorescent labeling so that the concentration is 20 μM. The colorant solution is diluted 10-fold with PBS and mixed to prepare a colorant dispersion I with a concentration of 2 μM.
Here, the method of mixing the colorant solution and the PBS is not particularly limited, and for example, a method of adding a colorant solution to PBS is preferable. Mixing may be performed separately in a plurality of steps. The method of mixing a colorant solution and PBS is not particularly limited, and a method that can quickly achieve a uniform mixing state is desirable. As an example of the mixing method, mixing can be performed by well-known methods such as stirring with a stirrer, pipetting with a pipette, and using a Vortex mixer. The colorant dispersion I can be obtained, for example, by diluting a colorant solution 10-fold with PBS at 25° C. and mixing by pipetting 10 times or more.
The particle size distribution of the colorant dispersion I obtained as above is measured using a particle size distribution measuring device (Zetasizer Nano ZSP, commercially available from Spectris). It is preferable to measure the average particle size under conditions at 25° C. It is desirable to measure the average particle size within 5 minutes after the colorant dispersion I is prepared.
As the value of the average particle size, values such as a Z average particle size, a number average particle size, a volume average particle size, and an area average particle size can be used. In the present invention, the Z average particle size measured by a dynamic light scattering method is defined as the average particle size of the colorant dispersed component contained in the colorant dispersion I.
After each colorant solution was diluted 10-fold with phosphate buffered saline (PBS) to obtain a colorant dispersion I with a colorant concentration of 2 μM, measurement was performed immediately (within 5 minutes) using a particle size distribution measuring device (Zetasizer Nano ZSP, commercially available from Spectris). The Z average particle size of the colorant fine particles (the colorant dispersed component in the colorant dispersion I) of each colorant for fluorescent labeling was determined based on the following criteria. The determination results are shown in “average particle size” in Table 8.
• 4: Z average particle size 5 nm or more to less than 100 nm • 3: Z average particle size 100 nm or more to less than 300 nm • 2: Z average particle size 300 nm or more to 500 nm or less • 1: Z average particle size more than 500 nm

[2] = Measurement of absorbance retention (A1 in PBS / A0 in dimethyl sulfoxide); type: physicochemical; conditions: A1/A0 at maximum-absorption wavelength; 2 μM in PBS vs 2 μM in dimethyl sulfoxide, within 5 minutes
Method: The absorbance retention calculated by Formula (I) is calculated as follows.
A colorant solution I is prepared by dissolving the colorant for fluorescent labeling in a soluble organic solvent so that the concentration is 2 μM. The absorption spectrum of the colorant solution I is measured using a spectrophotometer (U-4100, commercially available from Hitachi High-Tech Corporation), and the absorbance A0 at a maximum-absorption wavelength is determined.
In addition, a colorant dispersion II is prepared by dissolving the colorant for fluorescent labeling in a soluble organic solvent so that the concentration is 20 μM, and this is additionally diluted 10-fold with PBS so that the concentration is 2 μM. The absorption spectrum of the colorant dispersion II is measured using a spectrophotometer (U-4100, commercially available from Hitachi High-Tech Corporation), and the absorbance A1 at a maximum-absorption wavelength is determined. It is preferable to measure the absorbance under conditions at 25° C. In addition, it is desirable to measure the absorbance within 5 minutes after the […] is prepared. The colorant dispersion II can be obtained, for example, by diluting a colorant solution 10-fold with PBS at 25° C. and mixing by pipetting 10 times or more.
After each colorant solution was diluted 10-fold with dimethyl sulfoxide to obtain a colorant solution I with a colorant concentration of 2 μM, the absorption spectrum was measured using a spectrophotometer (U-4100, commercially available from Hitachi High-Tech Corporation), and the absorbance A0 at a maximum-absorption wavelength was obtained. In addition, after each colorant solution was diluted 10-fold with phosphate buffered saline (PBS) to obtain a colorant dispersion II with a colorant concentration of 2 μM, the absorption spectrum was measured immediately (within 5 minutes) using the spectrophotometer, and the absorbance A1 at a maximum-absorption wavelength was obtained. Using the obtained values of A0 and A1, the absorbance retention was calculated from Formula (I), and determined based on the following criteria.
• 4: absorbance retention 0.8 or more • 3: absorbance retention less than 0.8 to 0.5 or more • 2: absorbance retention less than 0.5 to 0.3 or more • 1: absorbance retention less than 0.3

Hela cells = experiment: Evaluation of cell staining: fluorescence intensity by plate reader; type: cell-based; conditions: 1 μM colorant, 1 hour, washed, plate reader 780 to 800 nm
Method: Each colorant solution was diluted 20-fold with an Eagle's minimum essential medium (commercially available from FUJIFILM Wako Pure Chemical Corporation) to prepare a fluorescent labeling agent containing 1 μM of the colorant for fluorescent labeling.
Hela cells were seeded in a 96-well plate (1×10^4 cells/well), and cultured in an incubator (37° C., 5% CO2-containing Air, humidified environment) for 48 hours using an Eagle's minimum essential medium (commercially available from FUJIFILM Wako Pure Chemical Corporation) containing 10% Fetal Bovine Serum (FBS) and 1% penicillin-streptomycin. Then, the medium was removed, and the fluorescent labeling agent prepared above was added to each well. The sample was left in an incubator for 1 hour, and then washed with the Eagle's minimum essential medium (commercially available from FUJIFILM Wako Pure Chemical Corporation). Using a plate reader (SPARK, commercially available from Tecan Group Ltd.), the fluorescence intensity was measured in a range of 780 to 800 nm, and evaluated based on the following criteria. […] The evaluation results are shown in “fluorescence intensity during cell staining” in Table 8.
• 4: fluorescence intensity measurement value 2,000 or more • 3: fluorescence intensity measurement value less than 2,000 to 1,000 or more • 2: fluorescence intensity measurement value less than 1,000 to 500 or more • 1: fluorescence intensity measurement value less than 500

Absorbance retention [2]	Compound	Average particle size [1]	Fluorescence intensity during cell staining (Hela cells)
4 (absorbance retention 0.8 or more)	O=C(O)CCOc1ccc(-c2cc3c(o2)=CC2=C(C(F)(F)F)c4cc5oc(-c6ccc(OCCC(=O)O)cc6)cc5n4[B-](F)(F)[N+]=32)cc1 [Colorant for fluorescent labeling 23]	3 (Z average particle size 100 nm or more to less than 300 nm)	4 (fluorescence intensity measurement value 2,000 or more)
4 (absorbance retention 0.8 or more)	O=P(O)(O)CCOc1ccc(-c2cc3c(o2)=CC2=C(C(F)(F)F)c4cc5oc(-c6ccc(OCCP(=O)(O)O)cc6)cc5n4[B-](F)(F)[N+]=32)cc1 [Colorant for fluorescent labeling 24]	3 (Z average particle size 100 nm or more to less than 300 nm)	4 (fluorescence intensity measurement value 2,000 or more)
1 (absorbance retention less than 0.3)	Aluminum 1, 8, 15, 22-tetrakis(phenylthio)-29H, 31H-phthalocyanine chloride [Comparative compound 3]	1 (Z average particle size more than 500 nm)	1 (fluorescence intensity measurement value less than 500)

Compound	Absorbance retention [2]	Average particle size [1]	Fluorescence intensity during cell staining (Hela cells)
CCCCCCCCCCCCCCCCCCN1/C(=C/C=C/C=C/C=C/C2=[N+](CCCCCCCCCCCCCCCCCC)c3ccccc3C2(C)C)C(C)(C)c2ccccc21.[I-] [Comparative compound 6]	2 (absorbance retention less than 0.5 to 0.3 or more)	2 (Z average particle size 300 nm or more to 500 nm or less)	1 (fluorescence intensity measurement value less than 500)
